PMC10454375, “Cell-Impermeable Inhibitors Confirm That Intracellular Human Transglutaminase 2 Is Responsible for the Transglutaminase-Associated Cancer Phenotype” (International Journal of Molecular Sciences, 2023)
Peptide text beside a SMILES is read from it. * marks the point of attachment. X1 = C=CC(=O)NCCCCC(NC(=O)OCc1ccccc1)C(=O)N1CCN(C(=O)C(CCC(=O)*)NC(=O)c2cccc3ccccc23)CC1

What was measured:
TG6 = molecular target: T1, TG6 (Homo sapiens, UniProt O95932); experiment: TGase isozyme selectivity, TG6 with AL5 substrate; assay type: biochemical; conditions: [I]/α identical to that of the TG2 assay
T1 construct: purchased Zedira GmbH (Darmstadt, Germany)
T1 sequence (O95932 1-706): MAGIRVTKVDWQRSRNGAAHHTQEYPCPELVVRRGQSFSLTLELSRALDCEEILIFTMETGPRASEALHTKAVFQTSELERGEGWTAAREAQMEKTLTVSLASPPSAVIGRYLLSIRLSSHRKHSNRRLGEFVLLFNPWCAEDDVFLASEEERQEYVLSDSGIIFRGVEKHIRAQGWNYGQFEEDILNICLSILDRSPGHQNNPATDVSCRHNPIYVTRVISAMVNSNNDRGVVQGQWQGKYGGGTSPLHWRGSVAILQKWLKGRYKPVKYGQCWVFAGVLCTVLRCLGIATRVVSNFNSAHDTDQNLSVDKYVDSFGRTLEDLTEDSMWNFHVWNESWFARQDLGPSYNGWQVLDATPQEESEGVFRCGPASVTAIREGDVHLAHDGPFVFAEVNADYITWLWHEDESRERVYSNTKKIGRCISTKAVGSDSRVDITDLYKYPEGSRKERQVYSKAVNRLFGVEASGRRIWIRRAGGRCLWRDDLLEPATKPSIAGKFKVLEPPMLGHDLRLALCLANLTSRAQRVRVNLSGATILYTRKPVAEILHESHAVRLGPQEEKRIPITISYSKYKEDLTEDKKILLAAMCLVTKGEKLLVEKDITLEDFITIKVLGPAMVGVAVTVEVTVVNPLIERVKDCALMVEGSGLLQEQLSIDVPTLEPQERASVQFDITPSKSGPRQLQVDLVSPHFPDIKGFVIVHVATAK
From the text: In the development of probes for TGases, isozyme selectivity is always a significant challenge. Since the catalytic machinery of the active sites of all TGases features a conserved Gly-Gln-Cys-Trp-Val sequence, selectivity for one isozyme over the others requires exploitation of slight differences in the protein substrate binding sites. In order to assess the isozyme selectivity of our cell-impermeable inhibitors, TG2 and four other therapeutically relevant TGases (Factor XIII, TG1, TG3, and TG6) were exposed to a concentration of inhibitor representing the same apparent competition with respect to the assay substrate (AL5 [38] or A101 [42, 43]). In other words, both the substrate and inhibitor concentrations were varied so that the [I]/α values were identical. […] This provides confidence that in further applications, these cell-impermeable inhibitors will selectively target TG2 over other transglutaminases.
[…] In brief, 125 µL assay buffer #1 (containing TRIS, CaCl2, and NaCl pH 7.5), 18 µL assay buffer #2 (containing TCEP and acceptor substrate H-Gly-OMe pH 7.5), and a respective concentration of inhibitor aqueous working stock balanced with various volumes of water were combined in a 96-well black plate with clear bottom/top. […] The isopeptidase activity of the respective TGase was then monitored at Ex/Em = 313/418 nm with a BioTek Synergy 4 plate reader at 25 °C. […]

MDA-MB-436 cells = experiment: Real-time cell migration assay (xCELLigence RTCA), MDA-MB-436; assay type: cell-based; conditions: 25 µM, 24 h
Procedure: We assayed the motility of MDA-MB-436 cells in the presence of vehicle or TG2 inhibitors 18 (NCEG2), 19 (NCEG-RHB), and NC9 at 25 μM concentration with the xCELLigence RTCA system (Real-Time Cell Analyzer System, Acea Biosciences Inc., San Diego, CA, USA). About 3 × 10^5 cells/wells were put into the top chambers of CIM-16 plates and the bottom chambers were filled with medium containing 5% FBS (Gibco Laboratories, New York, NY, USA) as a chemoattractant. Signal detection was done every 15 min for 24 h and each determination was performed in triplicate. Impedance values were expressed as a dimensionless parameter (Cell Index, CI), and values greater than 0.1 were considered positive. The rate of cell migration was also quantified by calculating the steepness, inclination, gradient, and changing rate of the CI curves over time (Slope).
A Vehicle B 0.025 Vehicle
C 2.5 Vehicle D 0.15 Vehicle
Figure S11. Migration assay: A) Dynamic monitoring of the migration of MDA-MB-436 cells.
We recorded for 24 hours the migration of the cells in the presence only of the vehicle or of the indicated TG2 inhibitors, used at 25 µM concentrations. Data are reported as Cell Index (CI) values ± SD. […] We recorded for 24 hours the migration of the cells in the presence only of the vehicle or of the indicated TG2 inhibitors, used at 25 µM concentrations. […]

HaCaT cells = experiment: Cell proliferation, HaCaT; assay type: cell-based, human; conditions: concentrations up to 100 µM
Procedure: Figure 4 Treatment of cancer cells with cell-permeable and cell-impermeable inhibitors. (A) HaCaT and SCC-13 are epidermis-derived cutaneous squamous cell carcinoma cells that were treated for 10 h with NCEG-RHB prior to imaging using a spinning disc confocal microscope. NCEG-RHB localization is detected adjacent to the nuclei (N) in both cell types and is indicated by red arrows. The HaCaT cell cultures were also stained for 15 min with MitoTracker Green before imaging. MitoTracker Green detects mitochondria membrane proteins inside the cell and the labelling is indicated by green arrows. White scale bars = 100 µm. (B) SCC-13 cells treated with cell-impermeable inhibitor 18 (NCEG2) and cell-permeable inhibitors NC9, AA9, and NCEG-RHB. Scale bars represent 50 µm; (*) p value < 0.001 (C) HaCaT cells treated with cell-impermeable inhibitor 18 (NCEG2) and cell-permeable inhibitors NC9 and AA9. Scale bars represent 50 µm; (*) p value < 0.001. (D) MDA-MB-436 cells treated with cell-impermeable 18 (NCEG2) and with cell-permeable inhibitors NC9, AA9 and NCEG-RHB. Experiments were carried out in triplicate and are represented as average ± SD of the percentage of living cells; (**) p value < 0.01.

| SMILES | inhibition of TG6 (TG6) | effect on cell migration (MDA-MB-436 cells) | effect on cell proliferation (HaCaT cells) |
| --- | --- | --- | --- |
| C=CC(=O)NCCCCC(NC(=O)OCc1ccccc1)C(=O)N1CCN(C(=O)C(CCC(=O)NCCCCCC(=O)NC(CC(=O)O)C(=O)NC(CC(=O)O)C(=O)NC(CC(=O)O)C(=O)O)NC(=O)c2cccc3ccccc23)CC1 (stereo not shown) [Compound 17] | no detectable inhibition | – | – |
| C=CC(=O)NCCCCC(NC(=O)OCc1ccccc1)C(=O)N1CCN(C(=O)C(CCC(=O)NCC(=O)NCC(=O)NCC(=O)NC(CC(=O)O)C(=O)NC(CC(=O)O)C(=O)NC(CC(=O)O)C(=O)O)NC(=O)c2cccc3ccccc23)CC1 (stereo not shown) [Compound 18] (X1-GGGDDD-OH; configuration not given here) | no detectable inhibition | failed to suppress migration | did not have any effect on cell proliferation |
